Consider three compounds from US4510150A, “Pharmaceutical compositions effective against coronary heart disease and hypertension” (Sandoz Ltd., priority 1980, dated 1985).

One experiment deals with β-adrenoceptor. In words: adequacy of betablockade checked with isoproterenol test dose in the anaesthetized open chest cat. The conditions noted are these: LT 50 μg/kg i.v.; isoproterenol 0.05 μg/kg before, 0.1 μg/kg after betablockade. The format is in vivo. As to the method: Cats of 2 to 4 kg of body weight were anaesthetized with chloralose urethane (43 and 430 mg/kg) and ventilated with a Loosco M.K.II infant ventilator with positive end-expiratory pressure. Catheters were inserted into the femoral artery and vein. The thorax was opened through the left fourth intercostal space, the aorta was freed of its adventitia and an electromagnetic flow probe was placed around it. The electromagnetic flow signal and its first derivative, acceleration of the blood in the aorta, mean aortic flow, phasic and mean aortic blood pressure, heart rate and mean right atrial pressure were recorded on a Beckmann R612 8 channel recorder. For flow measurements a Narco RT500 flowmeter was used. Differentiation was performed by a HSE 401 differentiator. The flow signal, which is a measurement of the velocity of blood in the aortic root was electronically integrated to obtain mean aortic flow. At the same time this signal was fed into the differentiator mentioned. The output of the differentiator, acceleration of blood in the aorta, is an indicator of myocardial function and was used instead of dp/dt (R. R. Rushmer, Circulation 29 [1964] 268, G. C. Van den Bos et al., Cardiovascular Research 7 [1973] 834), applied to cats by R. P. Hof and A. Hof, Journal of Pharmacological Methods, accepted for publication in 1981. […] The samples were counted in a Packard Mod. […]

Experiment [1] relates to paced guinea pig left atrium. The experiment is described as follows: contractility of paced guinea pig left atria in vitro. In kind it is cell-based. The conditions noted are these: for difference between cardiodepressant concentration and the pA2 of Ca-antagonism: guinea pig atria concentration vs dog coronary artery pA2. How it is done: (§1) Then the effects on contractility of paced guinea pig left […] in vitro was measured:
(§2) Guinea pigs of either sex weighing 250 to 400 g were killed by a blow on their heads and the left atrium was rapidly dissected from the heart and suspended in a modified oxygenated Tyrode solution at 30° C. The preload was adjusted to 1 g, rectangular impulses of 10 msec. at a rate of 1 Hz were used for pacing through a platinum cathode attached to the lower end of the tissue. The tension developed was measured isometrically with a Statham UC 3 transducer.

The target of experiment [2] is T1, calcium-induced contraction of isolated dog coronary arteries (Canis lupus familiaris, UniProt A0A8I3QY31).
T1 construct: Branches of the ventral interventricular artery (about 500 to 1000 μm outer diameter) were dissected and cut into helical strips; from tissue; host or cells: helical strips of branches of the ventral interventricular (coronary) artery of mongrel dogs
In words: calcium antagonism: calcium-induced contraction of isolated dog coronary arteries in depolarizing solution. The note with it: helical strips of dog coronary artery, 100 mM KCl solution, cumulative CaCl2 response curves, drug added 30 min before CaCl2; read-out: pA2 of calcium antagonism (converted). In kind it is cell-based. As to the method:
First the potency of calcium antagonism was determined on coronary arteries in vitro:
Mongrel dogs of either sex weighing between 15 and 30 kg were anaesthetized by rapid i.v. injection of pentobarbitone (50 mg/kg) and killed by i.v. injection of 100 ml of air. The heart was removed and placed in a modified Krebs-Henseleit solution (mM): NaCl 118, KCl 4.7, MgSo4 1.2, CaCl2 2.5, KH2 PO4 1.2, NaHCO3 25, glucose 11, at 37° C., gassed with 95% O2 -5% CO2. Branches of the ventral interventricular artery (about 500 to 1000 μm outer diameter) were dissected and cut into helical strips, approximately 1 to 3 mm wide and 10 mm long.
The strips were suspended in 10 ml organ baths containing Krebs-Henseleit solution at 37° C. gassed continuously with 5% CO2 in oxygen. Changes in the tension of the strips were recorded isometrically with electromechanical transducers (Statham model UC 3) and a potentiometric recorder. At the beginning of the experiments the strips were stretched to an initial tension of 500 mg and then allowed to equilibrate for 120 to 180 minutes in the bathing medium. Thereafter the Krebs-Henseleit solution was replaced by a solution containing 100 mM KCl in equimolar replacement for NaCl. Cumulative response curves for CaCl2 were established, using the method described by Van Rossum, J. M., Arch. […] The effects were expressed as percentage of the preceding response to […]. […]

In experiment [3] the target is T2, paced guinea pig left atrium (Cavia porcellus, UniProt O35505).
T2 construct: the left atrium was rapidly dissected from the heart and suspended in a modified oxygenated Tyrode solution; from tissue; host or cells: isolated left atrium of guinea pig
The experiment is described as follows: contractility of paced guinea pig left atria in vitro. In kind it is cell-based. The note with it: guinea pig; highest dose 0.444 μM; paced 1 Hz, 30° C.; read-out: contractile force, % of its baseline value. How it is done: as §1, §2

The subject of experiment [4] is anaesthetized open chest cat. In words: hemodynamics in the anaesthetized open chest cat (microsphere method). In kind it is in vivo.
Description: This observation was arrived at in the anaesthetized open chest cat as follows:
The microsphere method as described in 1967 by Rudolph, A. M. and Heymann, M. S. in Circ. Res. 21 (1967) 163 and modified by R. P. Hof, F. Wyler and G. Stalder, Basic Res. Cardial. 75, 747-756 (1980) was used. Cardiac output was calculated from the flow signal of an electromagnetic flow meter. […] This consists in sampling blood at a known flow rate into a syringe, which can be regarded as "an external organ".
This sampling is done during the time of microsphere circulation. The number of microspheres in the syringe is then determined and cardiac output can be calculated as follows:
where CO is cardiac output, Qs is flow to the syringe, Ni is the number of spheres injected and Ns is the number of spheres in the syringe.
Cats of 2 to 4 kg of body weight were anaesthetized with chloralose urethane (43 and 430 mg/kg) and ventilated with a Loosco M.K.II infant ventilator with positive end-expiratory pressure. Catheters were inserted into the femoral artery and vein. […] The electromagnetic flow signal and its first derivative, acceleration of the blood in the aorta, mean aortic flow, phasic and mean aortic blood pressure, heart rate and mean right atrial pressure were recorded on a Beckmann R612 8 channel recorder. […] The samples were counted in a Packard Mod. […]

T1 sequence (A0A8I3QY31 1-2188): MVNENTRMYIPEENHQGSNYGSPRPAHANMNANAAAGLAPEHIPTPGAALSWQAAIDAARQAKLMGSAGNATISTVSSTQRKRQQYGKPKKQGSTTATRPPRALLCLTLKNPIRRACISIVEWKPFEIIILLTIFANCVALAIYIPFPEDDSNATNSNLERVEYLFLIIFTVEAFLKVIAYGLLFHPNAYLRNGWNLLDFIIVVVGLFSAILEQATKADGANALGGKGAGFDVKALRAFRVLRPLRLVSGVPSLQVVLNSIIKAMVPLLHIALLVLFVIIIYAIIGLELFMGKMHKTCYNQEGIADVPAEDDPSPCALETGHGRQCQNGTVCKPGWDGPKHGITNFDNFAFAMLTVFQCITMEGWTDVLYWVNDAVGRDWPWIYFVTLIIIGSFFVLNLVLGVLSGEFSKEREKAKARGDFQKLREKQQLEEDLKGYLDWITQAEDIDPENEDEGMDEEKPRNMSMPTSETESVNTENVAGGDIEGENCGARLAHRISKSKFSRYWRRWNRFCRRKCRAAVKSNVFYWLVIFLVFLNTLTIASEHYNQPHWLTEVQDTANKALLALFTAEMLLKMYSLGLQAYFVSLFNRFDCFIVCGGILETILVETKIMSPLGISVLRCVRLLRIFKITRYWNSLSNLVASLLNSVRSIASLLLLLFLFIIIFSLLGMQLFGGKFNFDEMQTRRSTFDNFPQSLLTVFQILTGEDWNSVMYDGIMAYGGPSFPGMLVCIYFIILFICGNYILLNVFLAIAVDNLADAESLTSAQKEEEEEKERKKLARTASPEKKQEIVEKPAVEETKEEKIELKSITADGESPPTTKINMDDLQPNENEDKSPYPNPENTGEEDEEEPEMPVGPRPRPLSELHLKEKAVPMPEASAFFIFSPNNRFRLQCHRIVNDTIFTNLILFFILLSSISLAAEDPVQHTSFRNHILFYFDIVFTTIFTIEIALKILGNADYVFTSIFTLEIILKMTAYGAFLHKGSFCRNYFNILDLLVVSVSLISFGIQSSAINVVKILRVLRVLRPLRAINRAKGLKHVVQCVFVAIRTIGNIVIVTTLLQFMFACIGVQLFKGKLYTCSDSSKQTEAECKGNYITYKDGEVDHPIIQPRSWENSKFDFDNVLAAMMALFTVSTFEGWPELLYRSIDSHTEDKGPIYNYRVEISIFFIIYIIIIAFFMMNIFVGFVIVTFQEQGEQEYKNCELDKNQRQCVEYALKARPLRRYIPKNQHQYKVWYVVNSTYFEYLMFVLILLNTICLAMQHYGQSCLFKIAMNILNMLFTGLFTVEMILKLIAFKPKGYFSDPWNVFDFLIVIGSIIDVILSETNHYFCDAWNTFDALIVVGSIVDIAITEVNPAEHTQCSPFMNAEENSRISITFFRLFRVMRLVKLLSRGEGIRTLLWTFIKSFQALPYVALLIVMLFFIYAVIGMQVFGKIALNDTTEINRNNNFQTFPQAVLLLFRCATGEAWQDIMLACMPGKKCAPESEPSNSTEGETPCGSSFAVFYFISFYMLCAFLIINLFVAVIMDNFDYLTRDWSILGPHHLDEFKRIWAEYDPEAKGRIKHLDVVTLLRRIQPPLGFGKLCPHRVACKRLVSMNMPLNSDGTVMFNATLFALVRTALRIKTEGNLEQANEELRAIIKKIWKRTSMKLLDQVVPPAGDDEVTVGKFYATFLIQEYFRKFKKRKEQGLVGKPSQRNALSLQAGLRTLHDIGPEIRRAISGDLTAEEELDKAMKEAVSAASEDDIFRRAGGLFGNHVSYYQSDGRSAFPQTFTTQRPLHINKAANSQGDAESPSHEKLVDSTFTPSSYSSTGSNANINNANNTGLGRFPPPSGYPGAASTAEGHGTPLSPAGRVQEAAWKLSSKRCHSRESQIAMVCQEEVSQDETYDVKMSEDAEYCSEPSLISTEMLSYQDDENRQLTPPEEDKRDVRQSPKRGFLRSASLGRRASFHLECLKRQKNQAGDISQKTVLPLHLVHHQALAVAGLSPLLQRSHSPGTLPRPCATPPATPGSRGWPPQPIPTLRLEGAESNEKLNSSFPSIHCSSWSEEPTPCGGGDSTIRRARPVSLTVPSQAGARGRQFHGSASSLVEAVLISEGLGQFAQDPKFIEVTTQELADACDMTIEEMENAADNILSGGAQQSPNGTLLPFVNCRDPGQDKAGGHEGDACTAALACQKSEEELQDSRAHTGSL
T2 sequence (O35505 whole entry): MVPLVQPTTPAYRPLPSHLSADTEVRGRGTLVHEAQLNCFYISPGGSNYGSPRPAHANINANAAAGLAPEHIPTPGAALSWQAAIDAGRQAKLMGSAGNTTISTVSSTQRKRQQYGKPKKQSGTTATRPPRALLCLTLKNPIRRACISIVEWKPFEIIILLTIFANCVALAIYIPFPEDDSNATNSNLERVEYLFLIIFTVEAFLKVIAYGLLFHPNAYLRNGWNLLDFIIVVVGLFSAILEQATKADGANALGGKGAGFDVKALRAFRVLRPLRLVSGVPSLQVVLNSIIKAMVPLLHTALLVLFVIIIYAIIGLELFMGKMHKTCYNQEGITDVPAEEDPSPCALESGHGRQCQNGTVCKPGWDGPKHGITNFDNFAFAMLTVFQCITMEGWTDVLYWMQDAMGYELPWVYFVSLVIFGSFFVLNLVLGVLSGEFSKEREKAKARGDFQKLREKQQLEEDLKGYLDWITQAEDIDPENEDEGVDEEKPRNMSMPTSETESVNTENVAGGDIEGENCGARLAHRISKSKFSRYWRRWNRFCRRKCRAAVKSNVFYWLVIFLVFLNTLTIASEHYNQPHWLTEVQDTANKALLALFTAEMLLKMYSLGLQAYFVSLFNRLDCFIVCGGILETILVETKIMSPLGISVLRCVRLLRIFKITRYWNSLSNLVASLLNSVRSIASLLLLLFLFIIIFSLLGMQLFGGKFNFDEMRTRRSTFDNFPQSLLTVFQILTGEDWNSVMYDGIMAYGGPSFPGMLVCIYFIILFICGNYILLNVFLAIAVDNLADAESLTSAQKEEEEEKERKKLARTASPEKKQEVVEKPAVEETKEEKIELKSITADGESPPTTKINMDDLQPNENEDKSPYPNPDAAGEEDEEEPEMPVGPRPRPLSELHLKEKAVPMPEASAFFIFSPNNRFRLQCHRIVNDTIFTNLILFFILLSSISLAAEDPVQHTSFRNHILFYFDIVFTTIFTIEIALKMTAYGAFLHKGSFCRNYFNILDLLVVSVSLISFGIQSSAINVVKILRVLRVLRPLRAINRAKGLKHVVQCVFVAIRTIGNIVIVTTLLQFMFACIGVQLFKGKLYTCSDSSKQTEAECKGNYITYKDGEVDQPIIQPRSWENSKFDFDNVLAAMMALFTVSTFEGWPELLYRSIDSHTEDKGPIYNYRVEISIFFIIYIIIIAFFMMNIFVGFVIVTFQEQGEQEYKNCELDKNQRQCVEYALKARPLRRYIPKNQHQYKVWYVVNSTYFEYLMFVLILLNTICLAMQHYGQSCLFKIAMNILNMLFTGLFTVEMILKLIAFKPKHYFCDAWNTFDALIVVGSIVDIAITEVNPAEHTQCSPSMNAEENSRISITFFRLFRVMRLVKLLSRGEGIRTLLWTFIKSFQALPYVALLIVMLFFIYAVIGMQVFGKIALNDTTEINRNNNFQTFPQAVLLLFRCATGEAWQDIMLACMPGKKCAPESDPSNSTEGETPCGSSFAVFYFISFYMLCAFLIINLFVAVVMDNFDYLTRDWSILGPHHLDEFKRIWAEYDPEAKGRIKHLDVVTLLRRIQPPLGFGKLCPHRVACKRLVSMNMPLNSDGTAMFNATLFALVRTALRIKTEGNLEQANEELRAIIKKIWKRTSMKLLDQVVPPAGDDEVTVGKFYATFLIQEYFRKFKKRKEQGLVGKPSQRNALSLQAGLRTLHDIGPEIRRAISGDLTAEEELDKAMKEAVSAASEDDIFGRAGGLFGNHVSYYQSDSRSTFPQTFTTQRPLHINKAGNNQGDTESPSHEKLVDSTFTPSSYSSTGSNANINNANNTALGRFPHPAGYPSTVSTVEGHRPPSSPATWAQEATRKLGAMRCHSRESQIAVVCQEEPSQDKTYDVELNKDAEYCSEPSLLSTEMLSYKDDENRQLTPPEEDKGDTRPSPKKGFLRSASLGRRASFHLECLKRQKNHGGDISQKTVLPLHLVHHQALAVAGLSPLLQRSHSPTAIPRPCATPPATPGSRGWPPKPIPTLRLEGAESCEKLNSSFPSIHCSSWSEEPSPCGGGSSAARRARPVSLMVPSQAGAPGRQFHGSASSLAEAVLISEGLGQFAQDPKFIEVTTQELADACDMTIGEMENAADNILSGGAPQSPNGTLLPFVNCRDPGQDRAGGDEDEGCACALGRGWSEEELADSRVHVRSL

As for `Cc1cc2c(OCC(CNC(C)(C)C)OC(=O)c3ccccc3)cccc2[nH]1` (stereo not drawn) [LT, 4-(2-benzoyloxy-3-tert-butylaminopropoxy)-2-methylindole], the “suppression of isoproterenol effects” value in the experiment with β-adrenoceptor is “completely or almost completely suppressed”.
`COc1ccc(CCN(C)CCCC(C#N)(c2ccc(OC)c(OC)c2)C(C)C)cc1OC` (stereo not drawn) [Verapamil, reference compound]: the “difference between cardiodepressant concentration and the pA2 of Ca-antagonism” value in experiment [1] was “about 100 fold”. Further, the Kb in experiment [2] was 15.8 nM.
For the compound `CCOC(=O)C1=C(C)NC(C)=C(C(=O)OCC)C1c1cccc2nonc12` [compound No. 22], the activity at 0.444 µM in experiment [3] stood at 56%. In addition, the “difference between cardiodepressant concentration and the pA2 of Ca-antagonism” value in experiment [1] is on record as “about 10,000 fold”. Further, in experiment [1] (relative to Verapamil), the “times less cardiodepressant than Verapamil for a similar degree of calcium antagonism” value was “about 100 times”. The Kb in experiment [2] was 0.0316 nM. Besides, the coronary blood flow result in experiment [4] (43 μg/kg i.v., no pretreatment) is listed as “markedly increased”. Further, the “general hemodynamic parameters (acceleration of blood, cardiac output, heart rate, coronary flow) after β-blocker pretreatment” value in experiment [4] (compound No. 22 43 μg/kg i.v., 60 minutes after LT 50 μg/kg i.v.) was “strikingly similar to those without pretreatment”.
